Source: patent publication US20240043435A1, “TYK-2 INHIBITOR” (BEIGENE, LTD., priority 2020, published 2024)

Key:
[1] = biological target: T1, TYK2-JH2 (aa 575-869, in-house) protein (Homo sapiens, UniProt P29597); test: TYK2-JH2 biochemical assay (HTRF probe displacement); assay type: binding; details: Biochemical assay; read-out: TYK2-JH2 IC50
T1 construct: TYK2-JH2 (aa 575-869, in-house) protein; made in house
Procedure: Assay A: TYK2-JH2 Biochemical Assay
Compounds disclosed herein were tested for blocking of TYK2-JH2 (aa 575-869, in-house) protein with its probe in an assay based on Homogeneous Time Resolved Fluorescence. Compound dilution is done according to the following protocol: (1) Prepare 500× compounds solution in DMSO from 500 uM by 5-fold dilution, total 10 doses were included; (2) Prepare 10× compounds solution in an assay buffer containing 20 mM HEPES, pH 7.5, 10 mM MgCl2, 0.005% BSA, 2 mM DTT, 0.015% Brij-35 by transferring 1 μl serial 500× stock solution into 49 μl assay buffer. […] of 0.2 nM recombinant TYK2-JH2 protein was pre-incubated with 1 μl of 10× serial dilution of compounds at room temperature for 0.5 hour. […] The HTRF signals (ex337 nm, em620 nm/665 nm) were read on BMG PHERAstar FS instrument. The inhibition percentage of TYK2 interaction with its probe in presence of increasing concentrations of compounds was calculated based on the ratio of fluorescence at 615 nm to that at 665 nm. The IC50 for each compound was derived from fitting the data to the four-parameter logistic equation by Dotmatics.

[2] = test system: JAK2, TYK2/p-STAT4 (Tyr693) activated by IL-12 in NK-92 cell line; test: IL-12-JAK2, TYK2/p-STAT4 (Tyr693) inhibition IC50 cellular assay; assay type: cell-based; details: for Selectivity fold (TYK2/JAK2): Cellular assay, pSTAT5/GM-CSF IC50 vs pSTAT4/IL-12 IC50; for IC50: NK92, Cellular assay, read-out: pSTAT4/IL-12 IC50
From the text: Assay C: IL-12-JAK2, TYK2/p-STAT4 (Tyr693) Inhibition IC50 Cellular Assay
To evaluate the inhibition effect of compounds disclosed herein on JAK2, TYK2/p-STAT4 (Tyr693) activated by IL-12 in NK-92 cell line, NK-92 cells were collected and washed 3 times by DPBS and resuspended in MEM-α (GIBCO, Cat #12561056) with 10% FBS (Gibco, Cat #10099, Lot #1891605), without IL-2 (R&D systems, Cat #202-IL), starved overnight. Cells were collected and resuspended in 1640 medium (phenol red free, Gibco, Cat #11835-030) with 0.1% BSA, and 12.5 μl/5×10^4/well cell suspension were seeded to the 96-well plate (Corning, Cat #3799). Then cells were treated with compounds diluted in 0.2% DMSO 1640 medium, at 37° C., 1 h. Dilution is done according to the following protocol: (1) make 500× compounds solution in DMSO from 5 mM by 4-fold dilution, total 8 doses were included; (3) make 2× compounds solution in assay medium by transferring 0.5 μl serial 500× stock solution into 125 μl assay medium; (4) 15 μl of 2× serial solution is added to cells and incubate at 37° C. for 1 h, the final compound conc. is 10000, 2500, 625, 156.25, 39, 9.8, 2.4 and 0.61 nM, respectively. After 1 h, cells were treated with 2.5 μl medium containing IL-12 at 37° C. (R&D systems, Cat #219-IL-005, final conc. 40 ng/ml), 30 min. Following cells were lysed with 7.5 μl lysis buffer at RT, shaking on shaker for 1 h. 10 μL of cell lysate were transferred to a PE 384-well Proxiplate detection plate, and 5 μL of pre-mixed Alphascreen beads were added to each well. Covered the plate with a plate sealer, span 1000 rpm for 1 min, mix, Incubated overnight at room temperature. Read on BMG PheraStar with Alphascreen protocol. IC 50 values were calculated by fitting dependent data to the four-parameter logistic model using dotmatics software. The assay was performed by using AlphaLISA SureFire Ultra p-STAT4 (Tyr693) Assay Kit—High Volume (PE, Cat #ALSU-PST4-A-HV).

pSTAT5/GM-CSF = pSTAT5/GM-CSF cellular assay (JAK2 selectivity); assay type: cell-based; details: for Selectivity fold (TYK2/JAK2): pSTAT5/GM-CSF IC50 over pSTAT4/IL-12 IC50

T1 sequence (P29597 575-869): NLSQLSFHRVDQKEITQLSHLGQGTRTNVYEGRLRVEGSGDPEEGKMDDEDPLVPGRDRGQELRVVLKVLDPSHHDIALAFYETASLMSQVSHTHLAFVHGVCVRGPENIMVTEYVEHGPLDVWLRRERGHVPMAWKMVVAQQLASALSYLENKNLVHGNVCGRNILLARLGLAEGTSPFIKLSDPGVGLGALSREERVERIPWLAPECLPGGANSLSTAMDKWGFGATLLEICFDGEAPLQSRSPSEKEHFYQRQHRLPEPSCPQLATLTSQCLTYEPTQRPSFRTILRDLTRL

SMILES | IC50 [1] | Selectivity fold (TYK2/JAK2) [2] | IC50 [2] | IC50 (pSTAT5/GM-CSF) | Selectivity fold (TYK2/JAK2) (pSTAT5/GM-CSF)
CC(=O)Nc1cc(Nc2cc(OCC3CC3)cc(S(C)(=O)=O)n2)c(-c2ccc(N3C[C@@H](C)O[C@@H](C)C3)cn2)cn1 [Example C5, N-(4′-((4-(cyclopropylmethoxy)-6-(methylsulfonyl)pyridin-2-yl)amino)-5-((cis)-2,6-dimethylmorpholino)-[2,3′-bipyridin]-6′-yl)acetamide] | 0.032 nM | >456 fold | 21.9 nM | > 10000 nM | –
CC(=O)Nc1cc(Nc2cc(C)cc(S(C)(=O)=O)n2)c(-c2ccc3c(n2)OCC(C)(C)O3)cn1 [Example Q21, N-(5-(2,2-dimethyl-2,3-dihydro-[1,4]dioxino[2,3-b]pyridin-6-yl)-4-((4-methyl-6-(methylsulfonyl)pyridin-2-yl)amino)pyridin-2-yl)acetamide] | 0.037 nM | – | 0.411 nM | 1570 nM | 3824 fold
CC(=O)Nc1cc(Nc2cc(OC(C)C)cc(S(C)(=O)=O)n2)c(-c2cc3c(cn2)NCCO3)cn1 [Example Q4, N-(5-(3,4-dihydro-2H-pyrido[4,3-b][1,4]oxazin-7-yl)-4-((4-isopropoxy-6-(methylsulfonyl)pyridin-yl)amino)pyridin-2-yl)acetamide] | 0.037 nM | – | 1.1 nM | > 10000 nM | >9090 fold
COCC1CCN(c2cc(Nc3cc(NC(C)=O)ncc3-c3ccc4c(n3)OCC(C)(C)O4)nc(S(C)(=O)=O)c2)C1 (centres unmarked) [Example Q73, N-(5-(2,2-dimethyl-2,3-dihydro-[1,4]dioxino[2,3-b]pyridin-6-yl)-4-((4-(3-(methoxymethyl)pyrrolidin-1-yl)-6-(methylsulfonyl)pyridin-2-yl)amino)pyridin-2-yl)acetamide] | 0.025 nM | – | 2.84 nM | 2350 nM | 828 fold
CC(=O)Nc1cc(Nc2cc(OCCO)cc(S(C)(=O)=O)c2)c(-c2cc(C)n(C)n2)cn1 [Example N3, N-(5-(1,5-dimethyl-1H-pyrazol-3-yl)-4-((3-(2-hydroxyethoxy)-5-(methylsulfonyl)phenyl)amino)pyridin-2-yl)acetamide] | 0.033 nM | – | 12.6 nM | > 10000 nM | >791 fold
CCS(=O)(=O)c1cc(OC(C)C)cc(Nc2cc(NC(C)=O)ncc2-c2ccn(C)n2)n1 [Example J53, N-(4-((6-(ethylsulfonyl)-4-isopropoxypyridin-2-yl)amino)-5-(1-methyl-1H-pyrazol-3-yl)pyridin-2-yl)acetamide] | 0.033 nM | – | 3.47 nM | > 10000 nM | >2881 fold
CC(=O)Nc1cc(Nc2cncc(S(C)(=O)=O)n2)c(-c2ccc(N3C[C@@H](C)O[C@@H](C)C3)cn2)cn1 [Example C22, N-(5-(cis-2,6-dimethylmorpholino)-4′-((6-(methylsulfonyl)pyrazin-2-yl)amino)-[2,3′-bipyridin]-6′-yl)acetamide] | 0.023 nM | >21008 fold | 0.476 nM | > 10000 nM | –
CC(=O)Nc1cc(Nc2cc(OC(C)C)cc(S(C)(=O)=O)n2)c(-c2ccn(C3CC3)n2)cn1 [Example M2, N-(5-(1-cyclopropyl-1H-pyrazol-3-yl)-4-((4-isopropoxy-6-(methylsulfonyl)pyridin-2-yl)amino)pyridin-2-yl)acetamide] | 0.032 nM | – | 1.04 nM | > 10000 nM | >9615 fold
CC(=O)Nc1cc(Nc2cc(C3(C#N)CC3)cc(S(C)(=O)=O)n2)c(-c2ccc3c(n2)OCC(C)(C)O3)cn1 [Example Q120, N-(4-((4-(1-cyanocyclopropyl)-6-(methylsulfonyl)pyridin-2-yl)amino)-5-(2,2-dimethyl-2,3-dihydro-[1,4]dioxino[2,3-b]pyridin-6-yl)pyridin-2-yl)acetamide] | 0.032 nM | – | – | – | –
COC(C)c1cc(Nc2cc(NC(C)=O)ncc2-c2ccc(N3C[C@@H](C)O[C@@H](C)C3)cn2)nc(S(C)(=O)=O)c1 (single isomer, unassigned) [Example C20, N-(5-((cis)-2,6-dimethylmorpholino)-4′-((4-((R or S)-1-methoxyethyl)-6-(methylsulfonyl)pyridin-2-yl)amino)-[2,3′-bipyridin]-6′-yl)acetamide] | 0.023 nM | – | – | – | –
CC(=O)Nc1cc(Nc2cc(N3CCC(C)(O)CC3)cc(S(C)(=O)=O)n2)c(-c2ccc3c(n2)OCC(C)(C)O3)cn1 [Example Q55, N-(5-(2,2-dimethyl-2,3-dihydro-[1,4]dioxino[2,3-b]pyridin-6-yl)-4-((4-(4-hydroxy-4-methylpiperidin-1-yl)-6-(methylsulfonyl)pyridin-2-yl)amino)pyridin-2-yl)acetamide] | 0.019 nM | – | – | – | –
CC(=O)Nc1cc(Nc2cc(OC(C)C)cc(S(C)(=O)=O)n2)c(-c2ccc(F)cn2)cn1 [Example F18, N-(5-fluoro-4′-((4-isopropoxy-6-(methylsulfonyl)pyridin-2-yl)amino)-[2,3′-bipyridin]-6′-yl)acetamide] | 0.052 nM | – | – | – | –
CC(=O)Nc1cc(Nc2cccc(S(C)(=O)=O)n2)c(-c2cccnc2)cn1 [Example B2, N-(4-((6-(methylsulfonyl)pyridin-2-yl)amino)-[3,3′-bipyridin]-6-yl)acetamide] | 5.8 nM | – | – | – | –
CC(=O)Nc1cc(Nc2cc(N3CC(C)(O)C3)cc(S(C)(=O)=O)n2)c(-c2ccc3c(n2)OCC(C)(C)O3)cn1 [Example Q56, N-(5-(2,2-dimethyl-2,3-dihydro-[1,4]dioxino[2,3-b]pyridin-6-yl)-4-((4-(3-hydroxy-3-methylazetidin-1-yl)-6-(methylsulfonyl)pyridin-2-yl)amino)pyrid-in-2-yl)acetamide] | 0.031 nM | – | – | – | –
CC(=O)Nc1cc(Nc2cccc(S(C)(=O)=O)c2)c(-c2cc(C(C)(C)O)ccn2)cn1 [Example B9, N-(4-(2-hydroxypropan-2-yl)-4′-((3-(methylsulfonyl)phenyl)amino)-[2,3′-bipyridin]-6′-yl)acetamide] | 0.53 nM | – | – | – | –
CC(=O)Nc1cc(Nc2cc(C(C)(C)O)cc(S(C)(=O)=O)n2)c(-c2ccc3c(n2)OC(C)(C)CO3)cn1 [Example Q29, N-(5-(3,3-dimethyl-2,3-dihydro-[1,4]dioxino[2,3-b]yridine-6-yl)-4-((4-(2-hydroxypropan-2-yl)-6-(methylsulfonyl)pyridine-2-yl)amino)pyridine-2-yl)acetamide] | 0.037 nM | – | – | – | –
CC(=O)Nc1cc(Nc2cccc(S(C)(=O)=O)c2)c(-c2ncn(C)n2)cn1 [Example A10, N-(5-(1-methyl-1H-1,2,4-triazol-3-yl)-4-((3-(methylsulfonyl)phenyl)amino)pyridin-2-yl)acetamide] | 2.4 nM | – | 3000 nM | – | –
CC(=O)Nc1cc(Nc2cc(C)cc(S(C)(=O)=O)n2)c(-c2cc(C(C)(C)O)ccn2)cn1 [Example B10, N-(4-(2-hydroxypropan-2-yl)-4′-((4-methyl-6-(methylsulfonyl)pyridin-2-yl)amino)-[2,3′-bipyridin]-6′-yl)acetamide] | 0.045 nM | – | – | – | –
CC(=O)Nc1cc(Nc2cc(N3CCC(C)(O)C3)cc(S(C)(=O)=O)n2)c(-c2ccc3c(n2)OCC(C)(C)O3)cn1 (centres unmarked) [Example Q57, N-(5-(2,2-dimethyl-2,3-dihydro-[1,4]dioxino[2,3-b]pyridin-6-yl)-4-((4-(3-hydroxy-3-methylpyrrolidin-1-yl)-6-(methylsulfonyl)pyridin-2-yl)amino)pyridin-2-yl) acetamide] | 0.031 nM | – | – | – | –
